# Laboratory results taken from patent US10202361B2, “Pyridazinones as herbicides” (E I DU PONT DE NEMOURS AND COMPANY, priority 2014, dated 2019).
# Read-outs that look alike come from different tables or passages of the source.
# Assays:
# Format in all cases: in vivo
# [1] = tested on: barnyardgrass (Echinochloa crus-galli); test: Test B flooded paddy test; conditions: Echinochloa crus-galli, 312 h; Flood, 125 g ai/ha; scale of 0 to 100, 0 is no effect, 100 is complete control; 13 to 15 d; read-out: Plant response rating, Barnyardgrass
# Summary of the method: (§1)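 Plants at the 2-leaf stage were flooded to 3 cm and treated by applying compound directly to the paddy water, with depth held constant throughout. After 13–15 d in a greenhouse, injury was rated visually against controls on a 0 (no effect) to 100 (complete control) scale.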
# [2] = tested on: ducksalad (Heteranthera limosa); test: Test B flooded paddy test; conditions: Heteranthera limosa, 312 h; Flood, 125 g ai/ha; scale of 0 to 100, 0 is no effect, 100 is complete control; 13 to 15 d; read-out: Plant response rating, Ducksalad
# Summary of the method: as §1
# soybean (Glycine max) = test: Test C pre-/postemergence greenhouse herbicide test; conditions: Glycine max, Soybean, read-out: Plant response rating; for plant injury at 62 g/ha: 62 g ai/ha; for plant injury at 125 g/ha: 125 g ai/ha; for plant injury at 250 g/ha: 250 g ai/ha
# Summary of the method: (§2)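 Greenhouse pre- and postemergence screen: compounds in a non-phytotoxic solvent mix plus surfactant were applied to soil/sand-sown seeds or to 1- to 4-leaf plants. Visual rating 13–15 d later, 0 (no effect) to 100 (complete control).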
# [3] = tested on: lambsquarters (Chenopodium album); test: as above
# Summary of the method: as §2
# corn (Zea mays) = test: as above; conditions: Zea mays, Corn, read-out: Plant response rating; for plant injury at 62 g/ha: 62 g ai/ha; for plant injury at 125 g/ha: 125 g ai/ha; for plant injury at 250 g/ha: 250 g ai/ha
# Summary of the method: as §2
# [4] = tested on: johnsongrass (Sorghum halepense); test: as above; conditions: Sorghum halepense, Johnsongrass, read-out: Plant response rating; for pest or weed control at 31 g/ha: 31 g ai/ha; for pest or weed control at 62 g/ha: 62 g ai/ha; for pest or weed control at 125 g/ha: 125 g ai/ha; for pest or weed control at 250 g/ha: 250 g ai/ha
# Summary of the method: as §2
# [5] = tested on: oilseed rape (Brassica napus); test: as above; conditions: Oilseed Rape
# Summary of the method: as §2
# [6] = tested on: foxtail, giant (giant foxtail, Setaria faberii); test: as above; conditions: Setaria faberi, Foxtail, Giant, read-out: Plant response rating; for pest or weed control at 31 g/ha: 31 g ai/ha; for pest or weed control at 62 g/ha: 62 g ai/ha; for pest or weed control at 125 g/ha: 125 g ai/ha; for pest or weed control at 250 g/ha: 250 g ai/ha
# Summary of the method: as §2
# [7] = tested on: velvetleaf (Abutilon theophrasti); test: as above; conditions: Abutilon theophrasti, Velvetleaf, read-out: Plant response rating; for pest or weed control at 62 g/ha: 62 g ai/ha; for pest or weed control at 125 g/ha: 125 g ai/ha; for pest or weed control at 250 g/ha: 250 g ai/ha
# Summary of the method: as §2
# [8] = tested on: pigweed (Amaranthus retroflexus); test: as above; conditions: Amaranthus retroflexus, Pigweed, read-out: Plant response rating; for pest or weed control at 62 g/ha: 62 g ai/ha; for pest or weed control at 125 g/ha: 125 g ai/ha; for pest or weed control at 250 g/ha: 250 g ai/ha
# Summary of the method: as §2
# [9] = tested on: nutsedge, yellow (yellow nutsedge, Cyperus esculentus); test: as above; conditions: Cyperus, Nutsedge, Yellow, read-out: Plant response rating; for pest or weed control at 31 g/ha: 31 g ai/ha; for pest or weed control at 62 g/ha: 62 g ai/ha; for pest or weed control at 125 g/ha: 125 g ai/ha
# Summary of the method: as §2
# [10] = post-emergence, Postemergence, 31 g ai/ha
# [11] = pre-emergence, Preemergence, 31 g ai/ha
structure (smiles),measurement,setting,value
"Cc1cc(=O)n(-c2ccc(C(F)(F)F)cc2)nc1Cc1ccnc(C(F)(F)F)c1 [Compound 2, 5-methyl-2-[4-(trifluoromethyl)phenyl]-6-[[2-(trifluoromethyl)-4-pyridinyl]methyl]-3(2H)-pyridazinone]",pest or weed control at 125 g/ha,[1],0%
same,pest or weed control at 125 g/ha,[2],10%
same,plant injury at 31 g/ha,soybean (Glycine max); [10],20%
same,plant injury at 62 g/ha,"soybean (Glycine max); post-emergence, Postemergence",30%
same,plant injury at 125 g/ha,"soybean (Glycine max); post-emergence, Postemergence",40%
same,plant injury at 250 g/ha,"soybean (Glycine max); post-emergence, Postemergence",40%
same,plant injury at 62 g/ha,"soybean (Glycine max); pre-emergence, Preemergence",25%
same,plant injury at 125 g/ha,"soybean (Glycine max); pre-emergence, Preemergence",55%
same,plant injury at 250 g/ha,"soybean (Glycine max); pre-emergence, Preemergence",60%
same,Plant response rating,"[3]; Postemergence, 31 g ai/ha",55
same,Plant response rating,"[3]; Postemergence, 62 g ai/ha",70
same,Plant response rating,"[3]; Postemergence, 125 g ai/ha",75
same,Plant response rating,"[3]; Postemergence, 250 g ai/ha",80
same,Plant response rating,"[3]; Preemergence, 31 g ai/ha",100
same,Plant response rating,"[3]; Preemergence, 62 g ai/ha",100
same,Plant response rating,"[3]; Preemergence, 125 g ai/ha",100
same,Plant response rating,"[3]; Preemergence, 250 g ai/ha",100
same,plant injury at 62 g/ha,"corn (Zea mays); post-emergence, Postemergence",20%
same,plant injury at 125 g/ha,"corn (Zea mays); post-emergence, Postemergence",20%
same,plant injury at 250 g/ha,"corn (Zea mays); post-emergence, Postemergence",20%
same,plant injury at 31 g/ha,corn (Zea mays); [11],35%
same,plant injury at 62 g/ha,"corn (Zea mays); pre-emergence, Preemergence",55%
same,plant injury at 125 g/ha,"corn (Zea mays); pre-emergence, Preemergence",75%
same,plant injury at 250 g/ha,"corn (Zea mays); pre-emergence, Preemergence",75%
same,pest or weed control at 31 g/ha,"[4]; post-emergence, Postemergence",5%
same,pest or weed control at 62 g/ha,"[4]; post-emergence, Postemergence",5%
same,pest or weed control at 125 g/ha,"[4]; post-emergence, Postemergence",10%
same,pest or weed control at 250 g/ha,"[4]; post-emergence, Postemergence",10%
same,pest or weed control at 31 g/ha,"[4]; pre-emergence, Preemergence",65%
same,pest or weed control at 62 g/ha,"[4]; pre-emergence, Preemergence",70%
same,pest or weed control at 125 g/ha,"[4]; pre-emergence, Preemergence",80%
same,pest or weed control at 250 g/ha,"[4]; pre-emergence, Preemergence",90%
same,Plant response rating,"[5]; Postemergence, 31 g ai/ha",5
same,Plant response rating,"[5]; Postemergence, 62 g ai/ha",30
same,Plant response rating,"[5]; Postemergence, 125 g ai/ha",45
same,Plant response rating,"[5]; Postemergence, 250 g ai/ha",50
same,Plant response rating,"[5]; Preemergence, 31 g ai/ha",100
same,Plant response rating,"[5]; Preemergence, 62 g ai/ha",100
same,Plant response rating,"[5]; Preemergence, 125 g ai/ha",100
same,Plant response rating,"[5]; Preemergence, 250 g ai/ha",100
same,pest or weed control at 31 g/ha,"[6]; post-emergence, Postemergence",10%
same,pest or weed control at 62 g/ha,"[6]; post-emergence, Postemergence",10%
same,pest or weed control at 125 g/ha,"[6]; post-emergence, Postemergence",25%
same,pest or weed control at 250 g/ha,"[6]; post-emergence, Postemergence",25%
same,pest or weed control at 31 g/ha,"[6]; pre-emergence, Preemergence",45%
same,pest or weed control at 62 g/ha,"[6]; pre-emergence, Preemergence",98%
same,pest or weed control at 125 g/ha,"[6]; pre-emergence, Preemergence",100%
same,pest or weed control at 250 g/ha,"[6]; pre-emergence, Preemergence",100%
same,pest or weed control at 31 g/ha,[7]; [10],25%
same,pest or weed control at 62 g/ha,"[7]; post-emergence, Postemergence",30%
same,pest or weed control at 125 g/ha,"[7]; post-emergence, Postemergence",30%
same,pest or weed control at 250 g/ha,"[7]; post-emergence, Postemergence",35%
same,pest or weed control at 62 g/ha,"[7]; pre-emergence, Preemergence",40%
same,pest or weed control at 125 g/ha,"[7]; pre-emergence, Preemergence",85%
same,pest or weed control at 250 g/ha,"[7]; pre-emergence, Preemergence",85%
same,pest or weed control at 62 g/ha,"[8]; post-emergence, Postemergence",55%
same,pest or weed control at 125 g/ha,"[8]; post-emergence, Postemergence",60%
same,pest or weed control at 250 g/ha,"[8]; post-emergence, Postemergence",60%
same,pest or weed control at 31 g/ha,[8]; [11],100%
same,pest or weed control at 62 g/ha,"[8]; pre-emergence, Preemergence",100%
same,pest or weed control at 125 g/ha,"[8]; pre-emergence, Preemergence",100%
same,pest or weed control at 250 g/ha,"[8]; pre-emergence, Preemergence",100%
same,pest or weed control at 31 g/ha,"[9]; post-emergence, Postemergence",5%
same,pest or weed control at 62 g/ha,"[9]; post-emergence, Postemergence",5%
same,pest or weed control at 125 g/ha,"[9]; post-emergence, Postemergence",5%
same,pest or weed control at 250 g/ha,"[9]; post-emergence, Postemergence, 250 g ai/ha",10%
same,pest or weed control at 31 g/ha,"[9]; pre-emergence, Preemergence",10%
same,pest or weed control at 62 g/ha,"[9]; pre-emergence, Preemergence",25%
same,pest or weed control at 125 g/ha,"[9]; pre-emergence, Preemergence",35%
